Read-outs that look alike come from different tables or passages of the source.
Legend:
Type in all cases: in vivo
[1] = test system: Green Peach Aphid (GPA) (Myzus persicae); experiment: Bioassay on Green Peach Aphid (GPA), foliar spray on cabbage seedlings; conditions: Myzus persicae, 72 h; 200 ppm foliar spray on cabbage seedlings, graded after three days, Abbott corrected % control; read-out: Rating GPA (% Control (or Mortality))
Procedure: Certain molecules disclosed in this document were tested against GPA using procedures described in the following example. In the reporting of the results, the “GPA Rating Table” was used (See Table Section).
Cabbage seedlings grown in 3-inch pots, with 2-3 small (3-5 cm) true leaves, were used as test substrate. The seedlings were infested with 20-50 GPA (wingless adult and nymph stages) one day prior to chemical application. Four pots with individual seedlings were used for each treatment. Test compounds (2 mg) were dissolved in 2 mL of acetone/MeOH (1:1) solvent, forming stock solutions of 1000 ppm test compound. The stock solutions were diluted 5× with 0.025% Tween 20 in H2O to obtain the solution at 200 ppm test compound. A hand-held aspirator-type sprayer was used for spraying a solution to both sides of […] leaves until runoff. Reference plants (solvent check) were sprayed with the diluent only containing 20% by volume of acetone/MeOH (1:1) solvent. Treated plants were held in a holding room for three days at approximately 25° C. and ambient relative humidity (RH) prior to grading. Evaluation was conducted by counting the number of live aphids per plant under a microscope. Percent Control was measured by using Abbott's correction formula (W.S. Abbott, “A Method of Computing the Effectiveness of an Insecticide” J. Econ. Entomol. 18 (1925), pp. 265-267) as follows.
Corrected % Control=100*(X−Y)/X • where • X=No. of live aphids on solvent check plants and • Y=No. of live aphids on treated plants

[2] = test system: Corn Earworm (CEW) (Helicoverpa zea); experiment: Bioassay on Corn Earworm (CEW), 128-well diet tray assay; conditions: Helicoverpa zea, 168 h; for mortality at 50 µg/cm2: read-out: Rating CEW (% Control (or Mortality)); for mortality at 0.5 µg/cm2: 0.5 μg/cm2 on artificial diet, read-out: Rating CEW (% Control (or Mortality)), *Tested at 0.5 μg/cm2
Procedure: (§1) Certain molecules disclosed in this document were tested against BAW and CEW using procedures described in the following examples. In the reporting of the results, the “BAW & CEW Rating Table” was used (See Table Section).
Bioassays on CEW (Helicoverpa zea)
(§2) Trays were covered with a clear self-adhesive cover and held at 25° C., 14:10 light-dark for five to seven days. Percent mortality was recorded for the larvae in each well; activity in the eight wells was then averaged. The results are indicated in the table entitled “Table ABC: Biological Results” (See Table Section).

[3] = test system: Beet Armyworm (BAW) (Spodoptera exigua); experiment: Bioassay on Beet Armyworm (BAW), 128-well diet tray assay; conditions: Spodoptera exigua, 168 h; for mortality at 50 µg/cm2: read-out: Rating BAW (% Control (or Mortality))
Procedure: as §1
Bioassays on BAW (Spodoptera exigua)
as §2

[4] = 50 μg/cm2 on artificial diet, second instar larvae, five to seven days
[5] = second instar larvae, five to seven days

SMILES | mortality at 50 µg/cm2 [3, 4] [%] | mortality at 0.5 µg/cm2 [2, 5] [%] | other results
COc1ccc(N/C(=N/C(=O)Nc2ccc(-c3ncn(-c4ccc(C(F)(F)F)cc4)n3)cc2)SCOC(=O)C(C)C)c(C)c1 [Molecule A1, (E)-((N′-(4-methoxy-2-methylphenyl)-N-((4-(1-(4-(trifluoromethyl)phenyl)-1H-1,2,4-triazol-3-yl)phenyl)carbamoyl)carbamimidoyl)thio) methyl isobutyrate] | 50 to 100 |  | mortality at 200 ppm [1]: 0%; mortality at 50 µg/cm2 [2, 4]: 50 to 100%
COc1ccc(N/C(=N/C(=O)Nc2ccc(-c3ncn(-c4ccc(C(F)(F)F)cc4)n3)cc2)SC)c(C)c1 [Molecule A2, (Z)-Methyl N-(4-methoxy-2-methylphenyl)-N′-((4-(1-(4-(trifluoromethyl)phenyl)-1H-1,2,4-triazol-3-yl)phenyl)carbamoyl)carbamimidothioate] | 50 to 100 |  | mortality at 200 ppm [1]: 0%; mortality at 50 µg/cm2 [2, 4]: 50 to 100%
CC(C)C(=O)OCS/C(=N\C(=O)Nc1ccc(-c2ncn(-c3ccc(OC(F)(F)C(F)(F)F)cc3)n2)cc1)Nc1ccccc1C(C)C [Molecule A6, (Z)-((N-(2-Isopropylphenyl)-N′-((4-(1-(4-(pentafluoroethoxy)phenyl)-1H-1,2,4-triazol-3-yl)phenyl)carbamoyl)carbamimidoyl)thio)methyl isobutyrate] | 50 to 100 |  | mortality at 200 ppm [1]: 0%; mortality at 50 µg/cm2 [2, 4]: 50 to 100%
Cc1ccc(N2C(=O)CS/C2=N\C(=O)Nc2ccc(-c3ncn(-c4ccc(OC(F)(F)F)cc4)n3)cc2)c(C(C)C)c1 [Molecule A88] | 50 to 100 | 50 to 100 | 
Cc1ccc(F)c(N/C(S)=N/C(=O)Nc2ccc(-c3ncn(-c4ccc(OC(F)(F)F)cc4)n3)cc2)c1 [Molecule A89] | 50 to 100 | 50 to 100 | 
O=C(/N=C1\SCC(=O)N1c1ccc(Cl)cc1Cl)Nc1ccc(-c2ncn(-c3ccc(OC(F)(F)F)cc3)n2)cc1 [Molecule A92] | 50 to 100 | 50 to 100 | 
Cc1c(F)cccc1N1C(=O)CS/C1=N\C(=O)Nc1ccc(-c2ncn(-c3ccc(OC(F)(F)F)cc3)n2)cc1 [Molecule A93] | 50 to 100 | 50 to 100 | 
Cc1ccc(F)c(N2C(=O)CS/C2=N\C(=O)Nc2ccc(-c3ncn(-c4ccc(OC(F)(F)F)cc4)n3)cc2)c1 [Molecule A94] | 50 to 100 | 50 to 100 | 
CC(C)c1ccccc1N/C(S)=N/C(=O)Nc1ccc(-c2nnc(-c3ccc(OC(F)(F)C(F)(F)F)cc3)o2)cc1 [Molecule A96] | 50 to 100 |  | mortality at 50 µg/cm2 [2, 4]: 0%
CCc1cccc(C)c1N/C(S)=N/C(=O)Nc1ccc(-c2ncn(-c3ccc(OC(F)(F)F)cc3)n2)cc1 [Molecule A97] | 50 to 100 | 50 to 100 | 
COc1ccc(N/C(S)=N/C(=O)Nc2ccc(-c3ncn(-c4ccc(OC(F)(F)F)cc4)n3)cc2)c(C)c1 [Molecule A98] | 50 to 100 | 50 to 100 | 
Cc1cc(C)cc(N/C(S)=N/C(=O)Nc2ccc(-c3ncn(-c4ccc(OC(F)(F)F)cc4)n3)cc2)c1 [Molecule A100] | 50 to 100 | 50 to 100 | 
O=C(/N=C(\S)Nc1ccccc1Cc1ccccc1)Nc1ccc(-c2ncn(-c3ccc(OC(F)(F)F)cc3)n2)cc1 [Molecule A101] | 50 to 100 | 50 to 100 | 
CCc1cccc(C)c1N1C(=O)CS/C1=N\C(=O)Nc1ccc(-c2ncn(-c3ccc(OC(F)(F)F)cc3)n2)cc1 [Molecule A103] | 50 to 100 | 50 to 100 | 
Cc1cc(C)cc(N2C(=O)CS/C2=N\C(=O)Nc2ccc(-c3nnc(-c4ccc(OC(F)(F)F)cc4)o3)cc2)c1 [Molecule A104] | 0 | 50 to 100 | 
O=C(/N=C1\SCC(=O)N1c1ccccc1Cc1ccccc1)Nc1ccc(-c2ncn(-c3ccc(OC(F)(F)F)cc3)n2)cc1 [Molecule A105] | 50 to 100 | 50 to 100 | 

SMILES | mortality at 50 µg/cm2 [3, 4] [%] | mortality at 0.5 µg/cm2 [2, 5] [%] | other results
Cc1cccc(N/C(S)=N/C(=O)Nc2ccc(-c3ncn(-c4ccc(OC(F)(F)F)cc4)n3)cc2)c1C(C)C [Molecule A106] | 50 to 100 | 50 to 100 | 
CC(C)c1c(F)cccc1N/C(S)=N/C(=O)Nc1ccc(-c2ncn(-c3ccc(OC(F)(F)F)cc3)n2)cc1 [Molecule A107] | 50 to 100 | 50 to 100 | 
Cc1cccc(N2C(=O)CS/C2=N\C(=O)Nc2ccc(-c3ncn(-c4ccc(OC(F)(F)F)cc4)n3)cc2)c1C(C)C [Molecule A108] | 50 to 100 | 50 to 100 | 
CC(C)c1c(F)cccc1N1C(=O)CS/C1=N\C(=O)Nc1ccc(-c2ncn(-c3ccc(OC(F)(F)F)cc3)n2)cc1 [Molecule A109] | 50 to 100 | 50 to 100 | 
COc1ccc(Cl)cc1N1C(=O)CS/C1=N\C(=O)Nc1ccc(-c2ncn(-c3ccc(OC(F)(F)F)cc3)n2)cc1 [Molecule A111] | 50 to 100 | 50 to 100 | 
CC(C)c1ccccc1N/C(S)=N/C(=O)Nc1ccc(-c2ncn(-c3ccc(C(F)(F)C(F)(F)C(F)(F)F)cc3)n2)cc1 [Molecule A113] |  |  | mortality at 50 µg/cm2 [2]: 0%; mortality at 50 µg/cm2 [3]: 50 to 100%
CC(C)c1ccccc1N/C(S)=N/C(=O)Nc1ccc(-c2ccn(-c3ccc(OC(F)(F)F)cc3)n2)cc1 [Molecule A114] | 50 to 100 | 50 to 100 | 
CC(C)c1ccccc1N1C(=O)CS/C1=N\C(=O)Nc1ccc(-c2ncn(-c3ccc(OC(F)(F)C(F)(F)F)cc3)n2)cc1 [Molecule A115] | 50 to 100 | 50 to 100 | 
CC(C)c1cc(F)ccc1N/C(S)=N/C(=O)Nc1ccc(-c2ncn(-c3ccc(OC(F)(F)F)cc3)n2)cc1 [Molecule A116] | 50 to 100 | 50 to 100 | 
CC(C)c1cc(F)ccc1N1C(=O)CS/C1=N\C(=O)Nc1ccc(-c2ncn(-c3ccc(OC(F)(F)F)cc3)n2)cc1 [Molecule A117] | 50 to 100 | 50 to 100 | 
CC(C)c1cccc(N/C(S)=N/C(=O)Nc2ccc(-c3ncn(-c4ccc(OC(F)(F)F)cc4)n3)cc2)c1 [Molecule A118] | 0 |  | mortality at 50 µg/cm2 [2, 4]: 0%
CC(C)n1nccc1N/C(S)=N/C(=O)Nc1ccc(-c2ncn(-c3ccc(OC(F)(F)F)cc3)n2)cc1 [Molecule A119] | 50 to 100 | 0 to 50 | 
CC(C)c1cccc(N2C(=O)CS/C2=N\C(=O)Nc2ccc(-c3ncn(-c4ccc(OC(F)(F)F)cc4)n3)cc2)c1 [Molecule A120] | 0 |  | mortality at 50 µg/cm2 [2, 4]: 0%
CC(C)n1nccc1N1C(=O)CS/C1=N\C(=O)Nc1ccc(-c2ncn(-c3ccc(OC(F)(F)F)cc3)n2)cc1 [Molecule A121] | 50 to 100 | 50 to 100 | 
O=C(/N=C(\S)Nc1ccccc1C(F)(F)F)Nc1ccc(-c2ncn(-c3ccc(OC(F)(F)F)cc3)n2)cc1 [Molecule A127] | 50 to 100 |  | mortality at 50 µg/cm2 [2, 4]: 0%
O=C(/N=C1\SCC(=O)N1c1ccccc1C(F)(F)F)Nc1ccc(-c2ncn(-c3ccc(OC(F)(F)F)cc3)n2)cc1 [Molecule A128] |  | 50 to 100 | mortality at 0.5 µg/cm2 ([3]; 0.5 μg/cm2 on artificial diet, second instar larvae, five to seven days, read-out: Rating BAW (% Control (or Mortality)), *Tested at 0.5 μg/cm2): 50 to 100%

Reference: patent US20150196033A1, “PESTICIDAL COMPOSITIONS AND PROCESSES RELATED THERETO” (priority 2012, published 2015)
